In patent US4101381A, “Method and reagent for the determination of substances forming hydrogen peroxide” (Boehringer Mannheim GmbH, priority 1976, dated 1978):
In brackets after ≈: the same amount, converted by molar mass. Read-outs that look alike come from different tables or passages of the source.

Experiments:
[1] = prior-art method; cited from earlier work
[2] = solubility in an aqueous medium at pH 1; assay type: physicochemical

SMILES	stability [1]	solubility ([2]; read-out: solubility in an aqueous medium) [mg/mL]	solubility ([2]; read-out: solubility) [mg/mL]
Cn1c(=NN)sc2ccccc21 [MBTH, 3-methylbenzothiazolonehydrazone]	low stability	48 (≈ 268 mM)	
Cn1c(=NN)sc2cc(S(=O)(=O)O)ccc21 [MBTH sulfonate, 3-methyl-2-(sulfonyl)-benzothiazolonehydrazone]			6
